Test results reported in patent US20090042783A1, “APO E ANALOGS AND METHODS FOR THEIR USE” (priority 2004, published 2009).
Marks after values point to notes of the source that are not given here.

What was measured:
mice with DSS colitis = assay: Dextran sulfate sodium (DSS) colitis; type: in vivo, mouse
Text: This model was selected because it has become commonly accepted as a mouse model of colitis and is quite practical to employ, since it simply involves adding DSS to the drinking water (Moteau O. et al., 2000, Williams K L et al. 2001, Andres P G et al., 2000, Mahler M. et al., 1998, Tesser T G et al., 1998).

[1] = tested on: mice infected with C. rodentium; assay: C. rodentium colitis; type: in vivo; settings: for Colon wt (% Total Body wt) / Histology Score / Body wt (% Total Body wt): 10 days; for Body wt (% Total Body wt): 0.1% BEC or 2.5% DFMO; for Inhibition of mortality vs water alone: 1% L-Arg in drinking water
Text: C. rodentium colitis: Of the two existing mouse models (Gobert A P et al., 2004; Cheng Y. et al., 2003), the C. rodentium model was selected because it produces a Th1-predominant mucosal inflammation that has histologic changes similar to human IBD (Higgins L M et al., 1999). In this model, mice are infected by oral gavage with C. rodentium (Gobert A P et al., 2004), a gram negative pathogenic bacterium that is the rodent equivalent of enteropathogenic E. coli that causes diarrhea in humans.
Since arginase I and iNOS were both abundantly expressed in the colitis tissues and L-Arg was completely metabolized, we investigated the effect of administration of 1% L-Arg in the drinking water. In wild type (WT) mice, C. rodentium colitis induced a high level of mortality that began on day 9 post-infection (FIG. 31A). In WT animals treated with L-Arg, mortality was inhibited by 42% and 62% compared to mice receiving water alone, after 12 and 14 days of infection, respectively (FIG. 31A). By Cox regression analysis, WT mice treated with L-Arg had only a 31% hazard of death compared with mice receiving water alone (p<0.0009). In iNOS^−/− mice, no deaths were observed, with or without L-Arg (FIG. 31A). […] Note that the weight loss of WT mice is underestimated, since only the weights of animals still alive could be included. […] There was an additive effect of iNOS deletion and L-Arg administration, with a 68% decrease in colon weight. Neither iNOS deletion nor L-Arg treatment affected colon weight in uninfected control mice. Importantly, these changes were closely paralleled by changes in colon histology (FIG. 32).
In uninfected control mice, BEC or DFMO had no effect (Table I). […] In fact, experiments had to be terminated early at 10 days post-infection, because of deaths and severe disease at this point.

BV2 microglial cells = tested on: BV2 microglial cells
Description: For suppression of inflammation profiling, each peptide analog was tested at a final concentration of 0.1, […], 1, 3, 5, 10 and 25 μM in an LPS induced BV2 microglial cell release of NO and/or TNFα. […] The modification was a biotin label on the apoE peptide (biotin-[…]-amide) which allows detection with ^125I-streptavidin (ISA, Amersham).
In overview, BV-2 cells are plated in 96 well plates in complete media and then the media is replaced the next day with serum free media or reduced serum (1%) media. […] Each concentration of peptide (standard initial concentrations are 0.1, 0.5, 1, 3, 10 and 25 μM) is added to at least 6 wells of cells (e.g. 6 wells get 0.1 μM peptide, 6 wells get 0.5 μM peptide, etc.) and data are averaged from all 6 wells. […] (2001). Cell viability is also measured with an MTT assay (Laskowitz et al. 2001).

peritoneal macrophages = assay: Peritoneal macrophage production of NO, TNFα and IL-6 induced by MOG or LPS/IFN-γ; type: cell-based, mouse
Description: For this purpose, three mice with clinical scores of 0 and three with clinical scores of 4 at 30 dpi (day post-immunization) were used for preparation of peritoneal macrophage cultures. Macrophages were collected after peritoneal lavage with 3 ml heparin (10 U/ml)-containing PBS and then seeded to 96-well microplates at a density of 1×10^5 cells/well in Dulbecco's MEM containing 10% fetal bovine serum, 2 mM L-glutamine serum, 1% HEPES and 100 U/ml penicillin and 100 μg/ml streptomycin, 37° C. in a humidified incubator with 5% CO2. 24 h later, the serum-containing medium was removed and cells were washed once with serum-free medium. To examine the differentiated response of macrophage to immune stimulators, macrophages obtained from mice with clinical scores of 0 or 4 were exposed to serial concentrations of IFN-γ/LPS or MOG35-55 peptide. […] Media were collected at 45 h or 72 h, and analyzed by ELISA for […] and IL-6 or for nitric oxide (NO) as detailed below.
As the stable end product of nitric oxide release, nitrite levels in conditioned media were determined by injecting 50 μl media sample into a Sievers 280 NOA analyzer (Boulder, Colo., USA). Total protein (μg/well) was measured using the BCA method (Pierce, Rockford, Ill., USA) according to manufacturer's instructions with BSA as standard. BCA values were measured using a Molecular Devices Thermomax Microplate Reader (Menlo Park, Calif., USA) at OD562. Nitric oxide levels ere expressed as μM NO2—/mg protein.
For cytokine assays, supernatants were collected 45 h after […]/LPS or MOG treatments and quantitative ELISAs using selected pairs of monoclonal antibodies (as recommended by the manufacturer Biosource) were performed to quantify the cytokines, TNF-α and IL-6. For TNF-α ELISA, 96-well ELISA plates were pre-coated with rabbit anti-mouse polyclonal to TNF-α as capture antibodies for 18 h at 2-8° C. and then blocked for 2 h at room temperature. The wells were incubated with samples or mouse TNF-α standards. Following incubation for 2 h at room temperature, the wells were washed, after which hamster anti-mouse TNF-α biotinylated secondary antibody and horseradish peroxidase conjugate were added. Tetramethylbenzidine (TMB) solution was then added, and peroxidase-catalyzed color change was stopped by acidification with 2 NH2SO4. The plates were scanned at wavelength 450 nm and the absorbance were measured. The results are expressed as the mean concentration (pg/ml) ±SEM.
For IL-6 ELISA, rat anti-mouse monoclonal to IL-6 was used as capture antibody, and biotinylated rat anti-mouse monoclonal to IL-6 as detection antibody. The rest of procedure is identical to that of TNF-α ELISA.

[2] = tested on: C57BL/6J mice with MOG-induced EAE; assay: MOG-induced experimental autoimmune encephalomyelitis (EAE)
Description: EAE was induced in mice following the method of Feinstein et al. (Feinstein, Galea, et al. 2002) 1) two s.c. injections, one on each flank of the hind legs with 300 μg MOG35-55 peptide in 0.1 ml PBS emulsified in an equal volume of CFA containing 5 mg/ml of Mycobacterium tuberculosis H37RA (Difco, St. Louis, Mo.) were given on Day 0.2) Pertussis toxin (200 ng per mouse in 0.1 ml PBS) was given i.p. immediately and 48 h after first MOG injection. 3) a booster immunization with an identical emulsion, route of administration and location was given on Day 7.
Following the encephalitogenic challenge, mice were monitored daily and neurological impairment was evaluated by clinical score (C.S.) as follows: 0, no clinical signs of EAE; 1, limp tail; 2, flaccid tail and abnormal gait (ataxia and/or paresis of hind limbs); 3, severe hind limb paresis; 4, complete paralysis with hind body; and 5, moribund or death.
Mice were anesthetized, bled, and perfused with 25 ml PBS and 25 ml 4% paraformaldehyde in buffered PBS. Brains and spinal cords were dissected out from 3 mice with a clinical score of 0 and another 3 mice with a clinical score of 4 on day 30 post-immunization. Tissues were post-fixed in 4% paraformaldehyde for another 24 h and then stored in 1×PBS with 0.1% sodium azide. Fixed tissues were embedded in paraffin and 5 μm thick sections were cut from brain, the brain stem and three different levels of spinal cord (cervical, thoracic and lumbar). Sections were stained with hematoxylin/eosin for evidence of inflammation and Luxol fast blue (for demyelination). The severity of inflammation was evaluated using the following criteria: 0, no inflammation; 1, cellular infiltrates only in the perivascular areas and meninges; 2, mild cellular infiltrates only in parenchyma (1-10/section); 3, moderate cellular infiltrates in parenchyma (11-100/section); 4, marked cellular infiltrates in parenchyma (>100 section).
In total, 10 doses of peptides were given.

Molecule: N[C@@H](CSCCB(O)O)C(=O)O [BEC, S-(2-boronoethyl)-L-cysteine]
- Clinical and histologic parameters of DSS colitis (mice with DSS colitis; WT and iNOS−/− mice, data not shown): exacerbation of clinical and histologic parameters of colitis
- Colon wt (% Total Body wt) ([1]; WT mice, C. rodentium): 1.25 ± 0.07^b,d % Total Body wt
- Histology Score ([1]; WT mice, C. rodentium): 9.25 ± 0.69^b,d
- Body wt (% Total Body wt) ([1]; WT mice, C. rodentium): 82.4 ± 5.2^a,c % Total Body wt
- Colon wt (% Total Body wt) ([1]; WT mice, PBS (uninfected)): 0.42 ± 0.04 % Total Body wt
- Histology Score ([1]; WT mice, PBS (uninfected)): 0.67 ± 0.17
- Body wt (% Total Body wt) ([1]; WT mice, PBS (uninfected)): 110.1 ± 2.2 % Total Body wt
- Colon histologic injury score ([1]; iNOS−/− C. rodentium-infected mice + BEC, n=8, p<0.01): 6.44±0.98
- Colon weight ([1]; iNOS−/− C. rodentium-infected mice + BEC, p<0.05): 0.92±0.20 % of total body weight
- Effect in uninfected control mice ([1]; in the drinking water): had no effect
- Survival of C. rodentium-infected mice ([1]; in the drinking water): significant loss of survival

Molecule: N=C(N)NCCC[C@H](N)C(=O)O [L-Arg]
- Clinical parameters of DSS colitis (mice with DSS colitis; L-Arg (1%)): reduction in clinical parameters of colitis
- Colonic polyamine levels in DSS colitis (mice with DSS colitis; mouse, in vivo): enhanced polyamine levels
- Inhibition of mortality vs water alone ([1]; WT mice, 12 days of infection): 42%
- Inhibition of mortality vs water alone ([1]; WT mice, 14 days of infection): 62%
- Hazard of death compared with water alone (Cox regression) ([1]; WT mice, p<0.0009): 31%
- Decrease in colon weight ([1]; infected WT mice): 28%
- Weight loss ([1]; infected WT mice): reduced weight loss
- Increase in colonic ODC activity ([1]; infected WT mice treated with L-Arg): 40 fold
- Increase in colonic polyamines ([1]; infected WT mice with L-Arg treatment): 2.7±0.2 fold
- Decrease in colon weight ([1]; infected iNOS−/− mice given L-Arg): 68%
- IFN-γ, TNF-α and IL-1 mRNA in colitis tissues ([1]; real-time PCR): significant attenuation of these increases

Molecule: LLRKRLKRLHSALRVRL (Reverse of COG133) [Reverse Pep.]
- Suppression of NO and/or TNFα release from LPS treated BV2 cells (BV2 microglial cells): lacked bioactivity
- LPS/IFN-γ-induced production of NO, TNFα and IL-6 (peritoneal macrophages; COG133 at 1 μM rather than at 5 μM, P<0.05): failed to inhibit this production
- MOG-induced production of NO and TNFα (peritoneal macrophages; macrophages from C.S. 4 mice, 72 h after MOG 20 μg/ml): did not display such an inhibitory effect
- Clinical severity of EAE ([2]; 1 mg/kg i.v., 10 doses): did not improve the behavioral symptoms of EAE
- Incidence ([2]; 1 mg/kg i.v., 10 doses): 10/10
- Mortality ([2]; 1 mg/kg i.v., 10 doses): 3/10
- Day of onset ([2]; 1 mg/kg i.v., 10 doses Day 6-22, mean ± SEM): 17.3 ± 1.12
- Mortality ([2]; 1 mg/kg i.v., 10 doses, listed as reverse peptide): 5 of 15
- Mean maximum score ([2]; clinical score 0-5, mean ± SEM): 3.9 ± 0.31
